Assay results reported in BindingDB's records for doi:10.1002/cbic.201600673 (Université de Nantes, 2017).

Columns and labels:
Assay in all cases: Fluorescence Polarization Assay
[1] = biological target: Galectin-1 [C3S] (Human, UniProt P09382, C3S)
[2] = biological target: Galectin-7 (Homo sapiens, UniProt P47929)
[3] = biological target: Galectin-3 (Homo sapiens, UniProt P17931)
Galectin-3, sequence (P17931 whole entry): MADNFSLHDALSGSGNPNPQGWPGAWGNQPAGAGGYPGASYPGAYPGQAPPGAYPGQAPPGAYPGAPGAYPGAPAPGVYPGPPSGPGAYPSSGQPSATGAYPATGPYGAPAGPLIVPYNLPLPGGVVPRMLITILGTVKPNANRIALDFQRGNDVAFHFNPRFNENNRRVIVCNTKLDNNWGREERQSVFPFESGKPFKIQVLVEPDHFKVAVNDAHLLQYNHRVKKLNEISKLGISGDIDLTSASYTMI

Galectin-1 [C3S], sequence (P09382 2-135 C3S limits assumed): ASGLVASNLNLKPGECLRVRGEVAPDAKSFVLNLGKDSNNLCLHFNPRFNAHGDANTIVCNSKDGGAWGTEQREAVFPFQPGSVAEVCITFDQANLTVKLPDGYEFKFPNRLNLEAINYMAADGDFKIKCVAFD
Galectin-7, sequence (P47929 whole entry): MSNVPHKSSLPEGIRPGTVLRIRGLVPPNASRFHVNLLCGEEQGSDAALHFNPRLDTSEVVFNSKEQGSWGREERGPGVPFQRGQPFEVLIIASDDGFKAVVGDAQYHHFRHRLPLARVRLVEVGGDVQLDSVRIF

| Structure (SMILES) | Kd ([1]; 4 °C) [µM] | Kd ([2]; 4 °C) [µM] | Kd ([3]; 4 °C) [µM] | Kd ([3]; 25 °C) [µM] | Kd ([1]; 25 °C) [µM] | Kd ([2]; 25 °C) [µM] |
| --- | --- | --- | --- | --- | --- | --- |
| COc1cccc(C(=O)CC2C(O)[C@H](O[C@@H]3OC(CO)[C@H](O)C(OCc4ccc5ccccc5c4)C3O)C(CO)O[C@H]2OCCN=[N+]=[N-])c1 (stereo partly drawn) [[3-O-(2-naphthyl)methyl-β-D-galactopyranosyl]-(1-4)-2-deoxy-2-(3-methoxybenzamido)-β-D-glucopyranoside (11)] | 27 | 90 | 0.59 | 2.99 | – | – |
| OCC1O[C@@H](S[C@@H]2OC(CO)[C@H](O)C(n3cc(-c4cccc(F)c4)nn3)C2O)C(O)C(n2cc(-c3cccc(F)c3)nn2)[C@H]1O (stereo not given in full) [TD139] | – | 32 | – | – | – | – |
| COc1cccc(COC2C(O)[C@H](O[C@@H]3C(CO)O[C@@H](N=[N+]=[N-])C(NC(=O)c4cccc(OC)c4)C3O)OC(CO)[C@@H]2O)c1 (stereo partly drawn) [4-O-[3-O-(3-methoxybenzyl)-β-D-galactopyranosyl)]-1-azido-1,2-dideoxy-2-(3-methoxybenzamido)-β-D-glucopyranose (1)] | 23 | 86 | 0.66 | 3.27 | – | – |
| COc1cccc(C(=O)NC2C(O)[C@H](O[C@@H]3OC(CO)[C@H](O)C(OCc4ccc5ccccc5c4)C3O)C(CO)O[C@H]2OCCNC(=O)CCCCCN2C(=O)C=CC2=O)c1 (stereo partly drawn) [2-[6-Maleimide)caproyl]ethyl [3-O-(2-naphthyl)methyl-β-D-galactopyranosyl]-(1-4)-2-deoxy-2-(3-methoxybenzamido)-β-D-glucopyranoside (13)] | 16 | 21 | 0.014 | 0.082 | 43 | 129 |
